The values that follow come from patent US20230129485A1, “SYSTEM AND METHOD FOR DETERMINING MATERIAL PROPERTIES OF MOLECULAR SYSTEMS FROM AN AB-INITIO PARAMETERIZED FORCE-FIELD” (InterX, Inc., priority 2021, published 2023).

The nature of series [1]: Free energy of hydration by Solvation Model Dielectric (SMD) implicit solvent model. As to conditions: absolute error vs Exp (hydration). In outline:
(§1)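 Implicit-solvent predictions of hydration free energy. MolPro supplied the COSMO solvation energies across the dataset. Predicted SMD and PCM values were received rather than computed here. Coverage for SMD, PCM and COSMO-RS matches the QM-parameterized force-field subset.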

The conditions of series [2]: Table 5; free energy of hydration, GAFF prediction taken from literature; cited from earlier work.
Series [3] in a line: Free energy of hydration by Free Energy Machine Learning Model (FML). The conditions noted are these: absolute error vs Exp (hydration). The text has this: Machine learning models can be used for free energy determination.
A short description of series [4]: Free energy of hydration by COSMO-RS. Put shortly:
as §1

The conditions of series [5]: implicit solvent model, values received; cited from earlier work.
Series [6] in a line: Free energy of hydration predicted by General Amber Force Field (GAFF), from literature. The conditions noted are these: Table 5; error of GAFF hydration free energy vs experiment.
A short description of series [7]: Free energy of hydration by COSMO implicit solvent model (MolPro ver. 2012). The conditions noted are these: absolute error vs Exp (hydration). Put shortly:
as §1

For series [8] the following is noted: experimental, cited from earlier work; for Exp (hydration): Table 5.
Series [9] is described as follows: Free energy of hydration predicted with the QM-parameterized force field model (ARROW FF), classical MD and PIMD simulation in a water box. As to conditions: for Arrow error: Table 5, error of Arrow PIMD8 hydration free energy vs experiment; for Arrow PIMD8 Error: absolute error vs Exp (hydration). In outline: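 Classical and PIMD runs (MTS integrator, MTTK barostat at 1 atm) followed minimization and 50 ps equilibration, with 1 ns NPT production per window. Fifteen unequally spaced lambda windows removed all solute-solvent interactions simultaneously in a 32 Å water box. Hydration free energy computed by Bennett acceptance ratio and thermodynamic integration.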

Series [10] can be described thus: Free energy of hydration by Polarizable Continuum Model (PCM). The conditions noted are these: absolute error vs Exp (hydration). Put shortly:
as §1

For series [11] the following is noted: experimental, cited from earlier work.
Series [12] is described as follows: Free energy of hydration predicted by polarizable AMOEBA force field, from literature. As to conditions: Table 5; error of AMOEBA hydration free energy vs experiment.
For series [13] the following is noted: implicit solvent model, values received; cited from earlier work. The source holds these as a separate data set.
For series [14] the following is noted: Table 5; free energy of hydration, AMOEBA prediction taken from literature; cited from earlier work.
Series [15] is described as follows: CHEX/H2O partition coefficient (log D) predicted with the QM-parameterized force field model (ARROW FF). In outline: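 Cyclohexane/water partition coefficients were predicted by molecular simulation with a QM-parameterized force field, with bonded force constants and equilibrium values fitted to MP2/aug-cc-pVTZ energies. Solutes carried neutral functional groups, and results from four independent groups were averaged.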

Series [16] in a line: Free energy of solvation in cyclohexane predicted with the QM-parameterized force field model (ARROW FF), MD and PIMD. As to conditions: Table 4; for CHEX Arrow MD Error: error of MD cyclohexane solvation free energy vs experiment; for CHEX Arrow PIMD4 Error: error of PIMD4 cyclohexane solvation free energy vs experiment. Put shortly:
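Solute–cyclohexane interactions decoupled over 15 λ points with soft-core scaling, in MD and path-integral simulations under NPT at 1 atm using PME electrostatics and 9 Å cutoffs. Each window had 50 ps equilibration and 1 ns production; free energies from BAR and TI.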

The conditions of series [17]: CHEX/H2O partition coefficient, experimental, cited from earlier work; for Exp (log D): Table 3; for logD Exp (logD): Table 4.
Setting [18] is: Table 3, free energy of hydration.
The mark [19] stands for this setting: Table 3, absolute error of MD hydration free energy vs experiment.
The mark [20] stands for this setting: Table 3, absolute error of PIMD8 hydration free energy vs experiment.
Setting [21] is: Table 3, free energy of solvation in cyclohexane.
[22] abbreviates: Table 4, neutral amino-acid analogues.
Where [23] appears, read: Table 4, error of MD hydration free energy vs experiment.
[24] abbreviates: Table 4, error of PIMD8 hydration free energy vs experiment.
The mark [25] stands for this setting: Table 4, solvation free energy in cyclohexane.

Molecules are shown by their SMILES. Where two headings read alike, the source gives them in different places.

Take `CCCO` [Propanol]: in series [1], the “SMD Error” value is on record as 0.82 kcal/mol. Further, in [2], the GAFF was -3.12 kcal/mol. The compound also yielded an FML error in series [3] of 0.11 kcal/mol. Also, the COSMO-RS error in series [4] is given as 0.12 kcal/mol. Further, the “SMD free energy of hydration” value in [5] was -4.10 kcal/mol. The GAFF error in series [6] is 1.80 kcal/mol. In addition, in series [7], the “COSMO/Molpro Error” value is 1.30 kcal/mol. The “water Exp (hydration)” value in series [8] (setting [18]) is -4.92 kcal/mol. Moreover, in series [8] (free energy of hydration), the “Exp (hydration)” value was -4.92 kcal/mol. Further, the “water Arrow MD Error” value in series [9] (setting [19]) is 0.58 kcal/mol. The “water Arrow PIMD8 Error” value in series [9] (setting [20]) is 0.18 kcal/mol. In series [9], the Arrow error was 0.18 kcal/mol and the “Arrow PIMD8 Error” value is 0.18 kcal/mol. The “PCM Error” value in series [10] is 1.82 kcal/mol. Also, in series [11] (setting [21]), the “CHEX Exp (solvation)” value is -2.73 kcal/mol. In series [12], the AMOEBA error was 0.07 kcal/mol. The “PCM free energy of hydration” value in series [13] was -3.10 kcal/mol. Moreover, the AMOEBA in series [14] was -4.85 kcal/mol.
For the compound `C` [Methane], in [15], the “log D Arrow MD Error” value is on record as 0.25, the “log D Arrow PIMD Error” value was 0.09, the “logD Arrow MD Error” value was 0.25 and the “logD Arrow PIMD Error” value was 0.09. For the same compound, the “SMD Error” value in [1] is given as 0.24 kcal/mol. Moreover, the GAFF in series [2] is on record as 2.20 kcal/mol. The same compound returned an FML error in series [3] of 1.59 kcal/mol. In series [4], this compound came in with a COSMO-RS error of 0.20 kcal/mol. The “SMD free energy of hydration” value in series [5] is on record as 2.20 kcal/mol. Further, the GAFF error in [6] was 0.24 kcal/mol. In series [16], the “CHEX Arrow MD Error” value is reported as 0.01 kcal/mol and the “CHEX Arrow PIMD4 Error” value is reported as 0.04 kcal/mol. Further, the “COSMO/Molpro Error” value in [7] was 2.35 kcal/mol. Further, the “water Exp (hydration)” value in series [8] (setting [18]) is 1.96 kcal/mol. Moreover, the “water Exp (hydration)” value in series [8] (setting [22]) was 1.96 kcal/mol. For the same compound, the “Exp (hydration)” value in series [8] (free energy of hydration) was 1.96 kcal/mol. The “water Arrow MD Error” value in series [9] (setting [19]) was 0.32 kcal/mol. Also, the “water Arrow PIMD8 Error” value in series [9] (setting [20]) is 0.09 kcal/mol. For the same compound, in series [9] (setting [23]), the “water Arrow MD Error” value is recorded as 0.32 kcal/mol. In addition, the “water Arrow PIMD8 Error” value in series [9] (setting [24]) is recorded as 0.09 kcal/mol. Moreover, in series [9], the Arrow error is reported as 0.09 kcal/mol and the “Arrow PIMD8 Error” value was 0.09 kcal/mol. Also, in series [10], the “PCM Error” value amounted to 2.06 kcal/mol. Further, the “CHEX Exp (solvation)” value in [11] (setting [21]) was 0.14 kcal/mol. The “CHEX Exp (solvation)” value in series [11] (setting [25]) is 0.14 kcal/mol. The AMOEBA error in series [12] is listed as 0.23 kcal/mol. In addition, in [17], the “Exp (log D)” value is listed as 1.33 and the “logD Exp (logD)” value is 1.33. Further, the “PCM free energy of hydration” value in [13] was -0.10 kcal/mol. In addition, in [14], the AMOEBA was 1.73 kcal/mol.
On to `c1ccncc1` [pyridine], for which the “SMD Error” value in series [1] came out at 0.49 kcal/mol. The GAFF in series [2] was -3.45 kcal/mol. In series [3], the FML error was 0.21 kcal/mol. For the same compound, in series [4], the COSMO-RS error came out at 0.73 kcal/mol. Moreover, the “SMD free energy of hydration” value in series [5] was -4.20 kcal/mol. The GAFF error in [6] is on record as 1.24 kcal/mol. For the same compound, the “COSMO/Molpro Error” value in series [7] came out at 2.04 kcal/mol. For the same compound, the “water Exp (hydration)” value in series [8] (setting [18]) is -4.69 kcal/mol. The “Exp (hydration)” value in series [8] (free energy of hydration) was -4.69 kcal/mol. The “water Arrow MD Error” value in series [9] (setting [19]) is 0.84 kcal/mol. Moreover, the “water Arrow PIMD8 Error” value in [9] (setting [20]) is 0.08 kcal/mol. Besides, in [9], the Arrow error was 0.08 kcal/mol and the “Arrow PIMD8 Error” value is recorded as 0.08 kcal/mol. In series [10], the “PCM Error” value was 1.49 kcal/mol. For the same compound, the “CHEX Exp (solvation)” value in series [11] (setting [21]) was -4.30 kcal/mol. Further, the AMOEBA error in series [12] is on record as 0.90 kcal/mol. Besides, the “PCM free energy of hydration” value in [13] is -3.20 kcal/mol. Besides, in series [14], the AMOEBA is -5.59 kcal/mol.
On to `CCC` [Propane], for which, in series [15], the “log D Arrow MD Error” value is 0.31, the “log D Arrow PIMD Error” value is on record as 0.04, the “logD Arrow MD Error” value is 0.31 and the “logD Arrow PIMD Error” value is listed as 0.04. Moreover, the “SMD Error” value in series [1] came out at 0.16 kcal/mol. Also, the GAFF in series [2] is 2.56 kcal/mol. Besides, in [3], the FML error was found to be 0.50 kcal/mol. The compound further registered a COSMO-RS error in [4] of 0.05 kcal/mol. The “SMD free energy of hydration” value in series [5] is 1.80 kcal/mol. The GAFF error in [6] is 0.60 kcal/mol. Besides, in series [16], the “CHEX Arrow MD Error” value is on record as 0.23 kcal/mol and the “CHEX Arrow PIMD4 Error” value is 0.05 kcal/mol. Moreover, the “COSMO/Molpro Error” value in series [7] is 2.43 kcal/mol. Also, the “water Exp (hydration)” value in [8] (setting [18]) was 1.96 kcal/mol. Moreover, the “water Exp (hydration)” value in series [8] (setting [22]) was 1.96 kcal/mol. Also, in series [8] (free energy of hydration), the “Exp (hydration)” value is 1.96 kcal/mol. Moreover, the “water Arrow MD Error” value in [9] (setting [19]) was 0.66 kcal/mol. Moreover, in [9] (setting [20]), the “water Arrow PIMD8 Error” value was 0.00 kcal/mol. Moreover, in series [9] (setting [23]), the “water Arrow MD Error” value is reported as 0.66 kcal/mol. Also, the “water Arrow PIMD8 Error” value in series [9] (setting [24]) is listed as 0.00 kcal/mol. Moreover, in series [9], the Arrow error is 0.00 kcal/mol and the “Arrow PIMD8 Error” value is reported as 0.00 kcal/mol. Further, the “PCM Error” value in series [10] was 2.06 kcal/mol. Besides, in series [11] (setting [21]), the “CHEX Exp (solvation)” value was -2.03 kcal/mol. For the same compound, the “CHEX Exp (solvation)” value in series [11] (setting [25]) is -2.03 kcal/mol. Also, the AMOEBA error in series [12] was 0.27 kcal/mol. For the same compound, in series [17], the “Exp (log D)” value is reported as 2.93 and the “logD Exp (logD)” value is reported as 2.93. The “PCM free energy of hydration” value in series [13] is -0.10 kcal/mol. Moreover, in series [14], the AMOEBA is listed as 1.69 kcal/mol.
In the case of `CCO` [Ethanol], the “SMD Error” value in series [1] was determined as 0.81 kcal/mol. Further, the GAFF in series [2] was -3.45 kcal/mol. Further, in series [3], the FML error is 0.08 kcal/mol. Also, in series [4], the COSMO-RS error was 0.07 kcal/mol. The “SMD free energy of hydration” value in [5] was -4.20 kcal/mol. Also, the GAFF error in series [6] is 1.56 kcal/mol. Besides, the “CHEX Arrow MD Error” value in series [16] is 0.05 kcal/mol. Also, the “CHEX Arrow PIMD4 Error” value in [16] is 0.12 kcal/mol. Further, the “COSMO/Molpro Error” value in series [7] worked out at 1.19 kcal/mol. Moreover, the “water Exp (hydration)” value in [8] (setting [18]) and in series [8] (setting [22]) was -5.01 kcal/mol each time. In addition, in [8] (free energy of hydration), the “Exp (hydration)” value is -5.01 kcal/mol. Further, the “water Arrow MD Error” value in series [9] (setting [19]) and in series [9] (setting [23]) was 0.74 kcal/mol in each case. The “water Arrow PIMD8 Error” value in series [9] (setting [20]) and in series [9] (setting [24]) was 0.07 kcal/mol in each case. Besides, in series [9], the Arrow error is 0.07 kcal/mol. In addition, in series [9], the “Arrow PIMD8 Error” value is reported as 0.07 kcal/mol. In addition, the “PCM Error” value in series [10] is given as 1.91 kcal/mol. Besides, the “CHEX Exp (solvation)” value in series [11] (setting [21]) and in series [11] (setting [25]) was -2.59 kcal/mol each time. Besides, the AMOEBA error in series [12] is on record as 0.32 kcal/mol. Moreover, the “PCM free energy of hydration” value in series [13] is -3.10 kcal/mol. Moreover, in [14], the AMOEBA is -4.69 kcal/mol.
